In ChEMBL document CHEMBL3507680, “University of Dundee, Gates Library screen for HepG2 cell viability”:

experiment: Human HepG2 cell viability assay in 384 well format; format: toxicity, cell-based; design: dose 125 nL, time 70.5 hour; cytotoxicity at 70.5 h: concentration not given beside the values; settings: HepG2 cells, read-out: Inhibition

In order of rising cytotoxicity at 70.5 h:
1. CC(Nc1ccc(F)cc1)c1nnnn1-c1ccccc1 (stereo unspecified)  -109%
2. CCc1ccc(NC(=O)c2ncc(C(N)=O)cc2Cl)cc1F  -107%
3. Cc1cc(N2CCc3cncnc3C2)n2nc(C(F)(F)F)nc2n1  -104%
4. CNS(=O)(=O)c1ccc(CNC(=O)N(C)C(C)COC)cc1 (stereo unspecified)  -97.7%
5. Cc1nc(N2CCCC2)ccc1NCc1ccccn1  -96.9%
6. CNC(=O)c1ccccc1NCc1ncnn1C  -96.8%
7. O=C(CN(CC(O)c1ccc(F)cc1)C1CC1)NC1CCOCC1 (stereo unspecified)  -91.7%
8. Cc1cc(NC(=O)NC2CCN(C(C)C)CC2)c2ncccc2c1  -85.3%
9. CCS(=O)(=O)NC(CCSC)C(=O)Nc1ccc(F)cc1 (stereo unspecified)  -85.2%
10. COc1ccc(C(N)=O)cc1NCc1ncc(C(C)(C)C)o1  -81.1%
11. CC(C)n1cnnc1C1CCCN(S(=O)(=O)c2c[nH]cn2)C1 (stereo unspecified)  -78.9%
12. CS(=O)(=O)Cc1noc(CN2CCN(c3ccccc3Cl)CC2)n1  -76.6%
13. CCc1nn(C)c2[nH]nc(NC(=O)c3cccnc3NC(C)C)c12  -50.3%
14. CCCNC(=O)c1cccc(CNCc2csc(C(C)(C)C)n2)c1  -44.8%
15. CN(C)CCN(Cc1cccc(F)c1)C(=O)c1ccc2nccn2c1  -43.4%
16. c1ccc(N2CCCC2)c(NCc2ccncc2)c1  -39.9%
17. O=C(c1ccoc1)N(Cc1cccnc1)C1CC1  -21.3%
18. Cc1ccc(NS(=O)(=O)c2cnn(Cc3ccccc3)c2)c(C(=O)O)c1  -21.3%
19. COCC(C)NC(=O)CN1CCC(C)CC1 (stereo unspecified)  -20.8%
20. CN(CC1(O)CCCC1)C(=O)c1cccc(Nc2cnccn2)c1  -19.5%
21. CCNC(=O)CCC(=O)N1CCC(Oc2cc(C)ccc2C)CC1  -19.2%
22. COc1ccc(Cl)c(NCC(=O)NCC(=O)N2CCCC2)c1  -18.4%
23. O=C(c1cccnc1)N1CCSCC1  -16.5%
24. O=C(NCC1CCC1)c1cccc(CN2CCS(=O)(=O)CC2)c1  -16.2%
25. Cc1c(C(=O)NC2=NCCS2)cnn1-c1ccc(Br)cc1  -15%
26. Cc1ccc(C(=O)NCC(O)c2cnn(C)c2)c(Br)c1 (stereo unspecified)  -14.7%
27. O=S(=O)(Cc1ccccc1F)Cc1nnnn1C1CC1  -14.6%
28. [O-][S+](Cc1c(F)cccc1Cl)Cc1nnnn1C1CC1 (stereo unspecified)  -14.6%
29. Cc1nc(NC(=O)c2nn(-c3ccc(F)cc3C)cc2O)n[nH]1  -14.6%
30. O=S(=O)(CCCNCCn1cccn1)c1ccccc1  -14.5%
31. O=C(c1ccoc1)N(Cc1ccncc1)C1CC1  -14%
32. CN1CCCN(C(=O)c2cnsn2)c2cc(Cl)ccc21  -13.8%
33. COc1ccc(CN2CCN(CCn3ccnc3)CC2)cc1F  -13.3%
34. O=S(=O)(Cc1c(F)cccc1Cl)Cc1nnnn1C1CC1  -13.2%
35. Cn1cc(C(O)CNC(=O)c2ccc(F)cc2Cl)cn1 (stereo unspecified)  -13%
36. COc1ccc(CNC(=O)CCc2c(C)noc2C)cc1F  -12.8%
37. CCSc1ccc(C(=O)N2CCCC2C(=O)N2CCOCC2)cn1 (stereo unspecified)  -12.5%
38. CN1CCN(c2ccc(F)cc2C(N)=O)CC1  -12.1%
39. NC(=O)C1CCN(CCc2ccc(NCc3ccsc3)cc2)CC1  -11.9%
40. O=C(NCCO)Nc1c(F)cc(F)cc1-c1ccccc1  -10.7%
41. Cc1ccc(F)c2c1N(C(=O)c1cn(CC(=O)N(C)C)nn1)CCC2  -10.6%
42. O=C(CNC(=O)Nc1c(F)cc(F)cc1-c1ccccc1)NC1CC1  -10.3%
43. COc1ccc(-n2ccc(C(=O)N(CCN(C)C)C(C)C)n2)cc1  -10.3%
44. CCN(C(c1cccnc1)c1cc(C)cc(C)c1)S(C)(=O)=O (stereo unspecified)  -9.96%
45. CCN(C(=O)Nc1nncs1)C(C)c1cccc(OC)c1 (stereo unspecified)  -9.86%
46. CC(CC(=O)NCCS(N)(=O)=O)C1CCCCC1 (stereo unspecified)  -9.82%
47. CCc1nc(C(=O)N2CCN(C)c3ccccc32)c[nH]1  -9.6%
48. O=C1CN(C(=O)CN(CC2CCC2)CC(F)(F)F)CCN1  -9.35%
49. CCOc1cccc(NC(=O)c2cscn2)n1  -9.11%
50. CC(=O)Nc1nc(CS(=O)(=O)CCCc2ccccc2)cs1  -9.04%
51. CCOC(=O)CNC(=O)c1scnc1C  -8.4%
52. COC(=O)c1ccc(N2CCC(c3ccccc3)CC2)nn1  -8.39%
53. COc1ccc(CSc2nnc(N)n2C2CC2)cc1Cl  -8.32%
54. CCN(CC(=O)NC(C)C)C(=O)C(C)(C)c1ccc2c(c1)OCCO2  -8.1%
55. COc1ccc(OC(F)F)c(NCC(=O)NCC(=O)N2CCCC2)c1  -7.93%
56. CC(C)c1ncc(Cl)c(C(=O)N2CCN(C3CC3)CC2)n1  -7.86%
57. CS(=O)(=O)CCOCCNc1ccc(C#N)cc1F  -7.64%
58. CN(Cc1cccnc1)C(CO)c1cccc(Br)c1 (stereo unspecified)  -7.61%
59. CN1CCN(c2ccccc2NC(=O)NCC[S+](C)[O-])CC1 (stereo unspecified)  -7.57%
60. Cn1cc(S(=O)(=O)NC(CO)Cc2c[nH]c3ccccc23)cn1 (stereo unspecified)  -7.44%
61. Cc1cnc(CCNC(Cc2ccncc2)C(F)(F)F)s1 (stereo unspecified)  -7.12%
62. CCOCCN1CCN(CC(O)c2ccc(F)cc2)CC1 (stereo unspecified)  -6.89%
63. O=S(=O)(NCCN1CC=CC1)c1ccc(Cl)cc1  -6.79%
64. CN1CCN(c2ccccc2NC(=O)c2ccco2)CC1  -6.77%
65. N#Cc1ccc(C(=O)N(Cc2ccncc2)C2CC2)cc1  -6.43%
66. COc1cc(C)nc(N2CCN(C(C)c3nc(C)no3)CC2)n1 (stereo unspecified)  -6.32%
67. CC(CC(=O)N1CCCN(Cc2cscn2)CC1)n1cccc1 (stereo unspecified)  -6.05%
68. Cn1cc(NC(=O)CCc2ccsc2)ccc1=O  -5.97%
69. Cc1n[nH]c(C2CN(C(=O)COCC(F)(F)F)CCO2)n1 (stereo unspecified)  -5.9%
70. Cc1cnc(CCN(C)C(=O)c2cccc(C)c2O)s1  -5.87%
71. Cc1cc(C)cc(C(=O)NCc2ncnn2C)c1  -5.75%
72. CCN(Cc1ccoc1)C(=O)NC1CCN(CC2CC2)C1 (stereo unspecified)  -5.67%
73. Cc1nn(C(C)C)c(C)c1S(=O)(=O)Nc1ccc(C(=O)O)c(Cl)c1  -5.52%
74. O=C1OCCN1CCS(=O)(=O)c1cccc(Cl)c1  -5.19%
75. Cc1ccc(CN(C(=O)C(C)S(C)(=O)=O)C2CC2)cc1C (stereo unspecified)  -4.96%
76. CCOc1cccc(COC(=O)c2cscn2)n1  -4.87%
77. CC(C)N(CCCNC(=O)C1CC1)S(C)(=O)=O  -4.77%
78. CN(C(=O)NCC1(CN2CCOCC2)CCCCC1)C1CC1  -4.71%
79. Cn1cc(NC(=O)NCc2ccoc2)ccc1=O  -3.69%
80. Cn1cc(S(=O)(=O)N2CCCC2Cn2ccnc2)cn1 (stereo unspecified)  -3.56%
81. Cc1ncc(CN(C)C(=O)Nc2cccc(CN3CCOC3=O)c2)s1  -3.49%
82. CCOc1cncc(N2CCCC2c2nnc3n2CCCCC3)n1 (stereo unspecified)  -3.47%
83. Cc1nc(CCNC(Cc2ccncc2)C(F)(F)F)cs1 (stereo unspecified)  -3.19%
84. CCOCCC(=O)Nc1ccnn1-c1ccc(Cl)cc1  -3.17%
85. CN(C)c1cccc(C(=O)Nc2cn(C)c(=O)n(C)c2=O)c1  -3.1%
86. COc1ccc(CNC(=O)NCCc2nc(C)c(C)s2)cn1  -3.08%
87. CN(Cc1nnn(CC2CCC2)n1)C(=O)c1ccccc1  -2.78%
88. Cc1cnc(CCN(C)C(=O)c2ccc(O)nc2C)s1  -2.62%
89. CCc1nc(CN2CCCCC2C(N)=O)cs1 (stereo unspecified)  -2.28%
90. NC(=O)C1CCN(C(=O)Cc2ccc(Cl)c(Cl)c2)CC1  -2.27%
91. COc1ccc(NCC(=O)NCC(=O)N2CCCC2)c(C(F)(F)F)c1  -2.2%
92. CN1CCN(c2ccc(F)cc2NC(=O)NCC[S+](C)[O-])CC1 (stereo unspecified)  -2.15%
93. O=C1OCCN1CCS(=O)(=O)c1cccc(Br)c1  -2.02%
94. CC(NC(=O)c1sccc1C1CC1)c1ccc2c(c1)CC(=O)N2 (stereo unspecified)  -1.98%
95. Cc1ccsc1C(=O)NC(C)c1ccc2c(c1)CCC(=O)N2 (stereo unspecified)  -1.83%
96. Cc1cc2cc(CNC3CCN(S(C)(=O)=O)CC3)oc2cc1C  -1.78%
97. CCOC(=O)C(C)Nc1cccc(COCc2ccco2)c1 (stereo unspecified)  -1.34%
98. CC(C)CC(CCO)CNC(=O)N1CCC1(C)C (stereo unspecified)  -1.15%
99. COC(=O)N1CCC(Nc2ccc(Cl)c(C#N)n2)CC1  -0.879%
100. CCn1cc(S(=O)(=O)NC(=O)CCc2c[nH]c3ccccc23)cn1  -0.706%
101. Cn1cc(CC2CC(=O)N(Cc3ccccc3OC(F)F)C2=O)cn1 (stereo unspecified)  -0.223%
102. CC(C)(C)S(=O)(=O)CCNC(=O)c1ccc2ccccc2c1  0.161%
103. OC(COc1ccccc1Br)COC1CCOCC1 (stereo unspecified)  0.581%
104. CN1CCN(C(=O)c2cnsn2)c2cc(F)ccc21  1.4%
105. CC(C)CC(CCO)CNC(=O)N1CCCC1(C)C (stereo unspecified)  2.81%
106. CC(=O)NCCc1ccc(S(=O)(=O)Nc2cc(F)ccc2C)s1  3.63%
107. Cc1nn(C)c(Cl)c1C1CCCN1CC(=O)NC1CCCCC1 (stereo unspecified)  5.03%
108. CCN(C(C)=O)C(c1cccnc1)c1cc(C)cc(C)c1 (stereo unspecified)  6.16%
109. Cn1cnnc1CCNC(=O)c1ccccc1OC1CCC1  7.31%
110. Cc1cc2cc(CNC3CCN(CC4CCOC4)CC3)oc2cc1C (stereo unspecified)  10.8%
111. O=C(NCC(O)COc1ccccc1)Nc1nncs1 (stereo unspecified)  21.4%
112. CCn1ncc2c1CCCC2NCc1csc(COC)n1 (stereo unspecified)  21.6%
113. CC(C)(C)c1nc(CN(CCC2CCCCC2)CC(N)=O)no1  22.6%
114. Cc1cc(N(C)C)nc(N2CCN(C(C)c3nc(C)no3)CC2)n1 (stereo unspecified)  22.7%
115. CN1CCCN(C(=O)c2cnsn2)c2cc(F)ccc21  25.1%
116. COc1ccccc1C1(CNc2ccc(C(=O)N(C)C)cn2)CC1  25.8%
117. CN(Cc1ccsc1)C(=O)Nc1cccc(N2CCOC2=O)c1  26.8%
118. Cc1nn(C)c(C)c1C(=O)NCc1cc(N(C)C)nc2ccccc12  27.3%
119. COCCCn1ccc(NCc2cnc(C(C)(C)C)s2)n1  27.4%
120. CC(c1cccc(O)c1)N(C)S(N)(=O)=O (stereo unspecified)  37%
121. CCOc1ccc(N2CCC(C(O)c3ccccc3)CC2)nn1 (stereo unspecified)  51.9%
